ChEMBL document CHEMBL1150977, “A quantitative analysis of kinase inhibitor selectivity” (Nat Biotechnol, 2008)

Columns and labels:
[1] = target: T1, cAMP-dependent protein kinase catalytic subunit PRKX (Homo sapiens, UniProt P51817)
T1 sequence (P51817 whole entry): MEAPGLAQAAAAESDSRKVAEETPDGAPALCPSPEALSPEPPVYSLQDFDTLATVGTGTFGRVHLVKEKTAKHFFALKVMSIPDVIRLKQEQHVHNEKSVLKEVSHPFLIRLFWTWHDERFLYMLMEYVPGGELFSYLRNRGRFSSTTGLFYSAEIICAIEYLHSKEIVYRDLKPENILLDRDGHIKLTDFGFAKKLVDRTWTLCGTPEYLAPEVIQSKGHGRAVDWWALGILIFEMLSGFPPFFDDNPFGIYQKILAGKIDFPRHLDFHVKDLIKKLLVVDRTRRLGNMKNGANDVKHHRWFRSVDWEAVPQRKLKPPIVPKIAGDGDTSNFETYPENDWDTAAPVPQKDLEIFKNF

[2] = target: T2, Serine/threonine-protein kinase 4 (Homo sapiens, UniProt Q13043)
T2 sequence (Q13043 whole entry): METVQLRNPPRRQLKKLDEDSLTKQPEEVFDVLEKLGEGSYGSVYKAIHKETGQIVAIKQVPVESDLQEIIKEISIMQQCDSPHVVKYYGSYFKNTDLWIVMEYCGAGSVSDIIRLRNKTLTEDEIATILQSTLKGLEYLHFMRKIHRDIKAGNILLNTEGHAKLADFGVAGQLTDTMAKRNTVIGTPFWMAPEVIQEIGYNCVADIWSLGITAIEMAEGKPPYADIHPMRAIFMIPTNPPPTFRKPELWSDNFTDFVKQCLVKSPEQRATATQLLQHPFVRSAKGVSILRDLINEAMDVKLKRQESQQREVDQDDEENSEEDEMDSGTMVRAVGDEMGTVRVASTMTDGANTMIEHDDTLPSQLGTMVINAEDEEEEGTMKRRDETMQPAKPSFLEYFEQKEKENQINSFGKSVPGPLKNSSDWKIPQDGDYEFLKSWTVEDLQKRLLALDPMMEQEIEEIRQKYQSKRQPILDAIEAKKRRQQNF

[3] = target: Cyclin-dependent kinase 14 (Homo sapiens, UniProt O94921)
Sequence of Cyclin-dependent kinase 14 (O94921 whole entry): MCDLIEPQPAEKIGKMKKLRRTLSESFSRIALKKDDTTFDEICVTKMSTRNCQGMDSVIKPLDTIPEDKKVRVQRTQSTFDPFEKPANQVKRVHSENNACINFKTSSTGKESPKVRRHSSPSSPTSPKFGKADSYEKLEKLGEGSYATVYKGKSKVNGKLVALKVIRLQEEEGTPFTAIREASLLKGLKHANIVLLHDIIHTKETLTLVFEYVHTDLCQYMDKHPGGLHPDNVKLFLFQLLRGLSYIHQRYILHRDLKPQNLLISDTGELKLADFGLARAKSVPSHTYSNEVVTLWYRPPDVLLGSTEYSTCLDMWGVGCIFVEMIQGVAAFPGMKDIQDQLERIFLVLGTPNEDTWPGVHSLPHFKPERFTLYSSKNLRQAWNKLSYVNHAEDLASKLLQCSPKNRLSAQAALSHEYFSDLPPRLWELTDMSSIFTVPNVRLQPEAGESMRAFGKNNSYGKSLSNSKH

[4] = target: Tyrosine-protein kinase ABL1 (Homo sapiens, UniProt P00519, H396P)
[5] = target: T3, Phosphatidylinositol 5-phosphate 4-kinase type-2 beta (Homo sapiens, UniProt P78356)
T3 sequence (P78356 whole entry): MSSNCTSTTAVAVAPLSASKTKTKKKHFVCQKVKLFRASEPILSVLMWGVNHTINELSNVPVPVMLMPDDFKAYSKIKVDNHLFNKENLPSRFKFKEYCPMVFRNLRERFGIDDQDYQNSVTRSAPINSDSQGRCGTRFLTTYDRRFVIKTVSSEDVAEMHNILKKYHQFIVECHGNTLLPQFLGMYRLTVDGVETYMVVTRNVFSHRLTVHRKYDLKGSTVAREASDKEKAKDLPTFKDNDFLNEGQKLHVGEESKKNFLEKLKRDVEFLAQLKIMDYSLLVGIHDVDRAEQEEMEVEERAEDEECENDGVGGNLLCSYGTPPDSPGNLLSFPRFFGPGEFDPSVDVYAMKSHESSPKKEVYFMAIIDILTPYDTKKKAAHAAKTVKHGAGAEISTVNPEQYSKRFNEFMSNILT

[6] = target: Dual specificity testis-specific protein kinase 1 (Homo sapiens, UniProt Q15569)
Sequence of Dual specificity testis-specific protein kinase 1 (Q15569 whole entry): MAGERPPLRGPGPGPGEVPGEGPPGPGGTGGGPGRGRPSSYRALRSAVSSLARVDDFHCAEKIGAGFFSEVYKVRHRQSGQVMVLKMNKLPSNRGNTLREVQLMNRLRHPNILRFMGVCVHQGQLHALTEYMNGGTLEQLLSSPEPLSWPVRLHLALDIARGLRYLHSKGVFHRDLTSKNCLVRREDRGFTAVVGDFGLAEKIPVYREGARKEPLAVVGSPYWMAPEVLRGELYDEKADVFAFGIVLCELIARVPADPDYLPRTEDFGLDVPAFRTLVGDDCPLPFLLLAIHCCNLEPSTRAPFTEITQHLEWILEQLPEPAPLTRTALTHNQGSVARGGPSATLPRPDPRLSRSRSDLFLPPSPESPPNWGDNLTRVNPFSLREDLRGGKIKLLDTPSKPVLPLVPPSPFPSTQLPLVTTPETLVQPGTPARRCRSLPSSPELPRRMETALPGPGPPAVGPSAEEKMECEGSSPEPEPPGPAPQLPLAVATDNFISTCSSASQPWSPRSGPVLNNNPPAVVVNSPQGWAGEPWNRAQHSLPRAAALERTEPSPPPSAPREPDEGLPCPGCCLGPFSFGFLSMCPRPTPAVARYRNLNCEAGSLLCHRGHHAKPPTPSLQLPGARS

[7] = target: Dual specificity protein kinase CLK4 (Homo sapiens, UniProt Q9HAZ1)
Sequence of Dual specificity protein kinase CLK4 (Q9HAZ1 whole entry): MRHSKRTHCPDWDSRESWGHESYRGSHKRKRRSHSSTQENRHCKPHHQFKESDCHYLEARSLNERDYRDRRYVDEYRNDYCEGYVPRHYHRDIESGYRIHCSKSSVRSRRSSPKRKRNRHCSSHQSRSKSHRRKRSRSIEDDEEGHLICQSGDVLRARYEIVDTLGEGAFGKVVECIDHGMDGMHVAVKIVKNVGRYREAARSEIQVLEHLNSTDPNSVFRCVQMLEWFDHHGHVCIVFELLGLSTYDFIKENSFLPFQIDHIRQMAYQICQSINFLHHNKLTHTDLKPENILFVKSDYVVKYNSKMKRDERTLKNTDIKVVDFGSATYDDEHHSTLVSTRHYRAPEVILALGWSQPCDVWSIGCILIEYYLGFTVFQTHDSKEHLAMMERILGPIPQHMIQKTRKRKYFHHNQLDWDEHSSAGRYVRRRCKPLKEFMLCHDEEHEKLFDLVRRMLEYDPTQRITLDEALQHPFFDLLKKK

[8] = target: T4, Tyrosine-protein kinase receptor TYRO3 (Homo sapiens, UniProt Q06418)
T4 sequence (Q06418 whole entry): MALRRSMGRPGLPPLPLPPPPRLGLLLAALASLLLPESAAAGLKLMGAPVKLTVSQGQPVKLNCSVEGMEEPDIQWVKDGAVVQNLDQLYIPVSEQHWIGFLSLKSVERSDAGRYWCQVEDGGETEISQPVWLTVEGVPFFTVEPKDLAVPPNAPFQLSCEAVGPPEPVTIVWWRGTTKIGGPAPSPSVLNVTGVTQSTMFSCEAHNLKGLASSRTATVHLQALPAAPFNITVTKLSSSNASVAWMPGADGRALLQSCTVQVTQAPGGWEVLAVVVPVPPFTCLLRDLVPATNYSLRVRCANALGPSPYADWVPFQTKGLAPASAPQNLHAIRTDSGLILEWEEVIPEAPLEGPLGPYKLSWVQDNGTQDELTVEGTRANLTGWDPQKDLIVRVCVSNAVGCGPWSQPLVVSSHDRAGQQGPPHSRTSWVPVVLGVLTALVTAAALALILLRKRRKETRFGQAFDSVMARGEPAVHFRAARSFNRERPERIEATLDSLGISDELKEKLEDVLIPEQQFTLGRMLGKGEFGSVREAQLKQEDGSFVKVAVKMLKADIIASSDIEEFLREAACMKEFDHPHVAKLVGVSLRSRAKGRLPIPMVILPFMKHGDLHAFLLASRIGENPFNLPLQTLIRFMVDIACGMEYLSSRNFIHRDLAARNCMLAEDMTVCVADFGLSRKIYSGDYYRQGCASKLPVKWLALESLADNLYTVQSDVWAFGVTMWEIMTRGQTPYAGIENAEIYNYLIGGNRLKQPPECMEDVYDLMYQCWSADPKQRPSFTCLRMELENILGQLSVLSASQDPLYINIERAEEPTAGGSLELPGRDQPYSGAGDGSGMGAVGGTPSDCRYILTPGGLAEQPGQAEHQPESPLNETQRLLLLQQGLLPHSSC

[9] = target: Tyrosine-protein kinase JAK1 (Homo sapiens, UniProt P23458)
Sequence of Tyrosine-protein kinase JAK1 (P23458 whole entry): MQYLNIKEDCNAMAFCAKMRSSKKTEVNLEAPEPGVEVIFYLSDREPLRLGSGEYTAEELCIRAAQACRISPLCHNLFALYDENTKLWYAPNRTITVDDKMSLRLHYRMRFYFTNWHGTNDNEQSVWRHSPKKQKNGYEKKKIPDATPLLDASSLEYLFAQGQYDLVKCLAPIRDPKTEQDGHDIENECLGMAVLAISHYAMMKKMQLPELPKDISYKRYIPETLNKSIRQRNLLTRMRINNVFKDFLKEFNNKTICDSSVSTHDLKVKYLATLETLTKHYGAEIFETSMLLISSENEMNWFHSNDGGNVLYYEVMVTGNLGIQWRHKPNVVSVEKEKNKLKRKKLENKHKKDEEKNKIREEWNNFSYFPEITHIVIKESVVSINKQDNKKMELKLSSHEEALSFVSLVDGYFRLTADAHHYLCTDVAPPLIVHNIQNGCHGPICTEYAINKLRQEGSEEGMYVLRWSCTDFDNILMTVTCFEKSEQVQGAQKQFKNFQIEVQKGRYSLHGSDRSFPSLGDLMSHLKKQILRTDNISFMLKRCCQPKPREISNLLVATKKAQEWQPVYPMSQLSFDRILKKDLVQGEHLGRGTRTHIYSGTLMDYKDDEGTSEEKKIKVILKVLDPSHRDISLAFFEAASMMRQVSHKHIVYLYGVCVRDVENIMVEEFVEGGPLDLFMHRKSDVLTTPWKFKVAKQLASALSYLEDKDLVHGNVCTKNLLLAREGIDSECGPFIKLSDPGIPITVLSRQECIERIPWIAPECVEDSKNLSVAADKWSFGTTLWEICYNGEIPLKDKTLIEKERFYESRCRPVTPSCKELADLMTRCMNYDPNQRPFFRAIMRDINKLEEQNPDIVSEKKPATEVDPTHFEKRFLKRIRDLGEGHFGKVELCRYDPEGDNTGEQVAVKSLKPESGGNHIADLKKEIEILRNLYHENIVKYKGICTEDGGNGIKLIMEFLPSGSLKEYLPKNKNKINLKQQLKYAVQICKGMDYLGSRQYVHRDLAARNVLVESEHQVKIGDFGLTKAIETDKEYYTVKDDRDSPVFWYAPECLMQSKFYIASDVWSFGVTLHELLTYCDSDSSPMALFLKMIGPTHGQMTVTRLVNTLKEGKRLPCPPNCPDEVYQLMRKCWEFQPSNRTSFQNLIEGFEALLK

[10] = target: Dual specificity mitogen-activated protein kinase kinase 2 (Homo sapiens, UniProt P36507)
Sequence of Dual specificity mitogen-activated protein kinase kinase 2 (P36507 whole entry): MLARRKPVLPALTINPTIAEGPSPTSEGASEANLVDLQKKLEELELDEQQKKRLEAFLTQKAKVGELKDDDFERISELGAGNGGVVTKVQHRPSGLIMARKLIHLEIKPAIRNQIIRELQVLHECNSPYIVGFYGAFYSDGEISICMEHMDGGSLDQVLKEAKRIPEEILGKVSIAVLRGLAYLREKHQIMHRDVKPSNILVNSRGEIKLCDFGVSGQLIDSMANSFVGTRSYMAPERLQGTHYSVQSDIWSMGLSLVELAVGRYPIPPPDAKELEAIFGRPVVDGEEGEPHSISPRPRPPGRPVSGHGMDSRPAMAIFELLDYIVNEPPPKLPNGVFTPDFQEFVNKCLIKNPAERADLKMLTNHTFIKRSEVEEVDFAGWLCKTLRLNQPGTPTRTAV

[11] = target: Calcium/calmodulin-dependent protein kinase type 1 (Homo sapiens, UniProt Q14012)
Sequence of Calcium/calmodulin-dependent protein kinase type 1 (Q14012 whole entry): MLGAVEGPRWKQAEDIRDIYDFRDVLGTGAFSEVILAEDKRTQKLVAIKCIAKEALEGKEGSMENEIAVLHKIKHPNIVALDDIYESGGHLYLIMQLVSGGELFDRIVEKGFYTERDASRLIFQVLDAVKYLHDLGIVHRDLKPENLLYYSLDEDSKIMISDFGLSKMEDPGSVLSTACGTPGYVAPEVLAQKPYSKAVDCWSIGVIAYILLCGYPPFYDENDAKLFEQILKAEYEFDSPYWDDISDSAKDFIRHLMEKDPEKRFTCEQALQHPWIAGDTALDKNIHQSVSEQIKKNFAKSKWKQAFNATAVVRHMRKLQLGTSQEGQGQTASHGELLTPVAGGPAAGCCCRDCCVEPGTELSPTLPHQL

In the case of `CCN1CCN(Cc2ccc(NC(=O)Nc3ccc(Oc4cc(NC)ncn4)cc3)cc2C(F)(F)F)CC1` [AST-487], the Kd [1] is reported as > 10 µM and the Kd [2] is reported as > 10 µM.

For `COCC(=O)NC/C=C/c1ccc2ncnc(Nc3ccc(Oc4ccc(C)nc4)c(C)c3)c2c1` [CP-724714], the Kd [1] was > 10 µM, the Kd [3] was > 10 µM and the Kd [4] was > 10 µM. The Kd [5] was > 10 µM, the Kd [2] was > 10 µM and the Kd [6] was > 10 µM. The Kd [7] was > 10 µM, the Kd [8] was > 10 µM and the Kd [9] was > 10 µM. The Kd [10] was > 10 µM.

In the case of `Nc1nc(Nc2ccc(S(N)(=O)=O)cc2)nn1C(=O)c1c(F)cccc1F` [JNJ-7706621], the Kd [3] is reported as 3.6 µM, the Kd [11] is reported as > 10 µM and the Kd [2] is reported as 0.13 µM. The Kd [6] was 3.1 µM and the Kd [8] was > 10 µM.

In the case of `CCOc1cc2ncc(C#N)c(Nc3ccc(F)c(Cl)c3)c2cc1NC(=O)/C=C/CN(C)C` [PELITINIB], the Kd [1] is reported as > 10 µM, the Kd [3] is reported as > 10 µM and the Kd [11] is reported as > 10 µM. For the same compound, the Kd [6] was > 10 µM and the Kd [9] was > 10 µM.

For `Oc1ccc(-c2nc(-c3ccncc3)c(-c3ccc(F)cc3)[nH]2)cc1` [SB-202190], the Kd [1] was > 10 µM, the Kd [3] was > 10 µM and the Kd [4] was > 10 µM. The Kd [5] was > 10 µM, the Kd [11] was > 10 µM and the Kd [2] was > 10 µM. The Kd [6] was > 10 µM, the Kd [7] was > 10 µM and the Kd [8] was > 10 µM. For the same compound, the Kd [9] was > 10 µM and the Kd [10] was 9.6 µM.

For `NC(=O)c1ccc(-c2nc(-c3ccc4c(c3)OCO4)c(-c3ccccn3)[nH]2)cc1` [SB-431542], the Kd [1] was > 10 µM, the Kd [3] was > 10 µM and the Kd [4] was > 10 µM. For the same compound, the Kd [5] was > 10 µM, the Kd [11] was > 10 µM and the Kd [2] was > 10 µM. For the same compound, the Kd [7] was > 10 µM, the Kd [8] was > 10 µM and the Kd [9] was > 10 µM. For the same compound, the Kd [10] was > 10 µM.
